What was measured:
[1] = in water; cited from earlier work
CCRF-CEM (Leukemia) = assay: five dose-response growth inhibition/cytotoxicity, CCRF-CEM; format: cell-based, human; details: for CC50: read-out: LC50 (the source's name)
Method: (§1) The preliminary evaluation of compounds 3a-z was carried out at a single dose of 10 μM, against a panel of 60 human tumor cell lines, according to the procedure described by Rubinstein et al., Natl. Cancer. […] The human tumor cell line panel included leukemia, non-small cell lung, colon, central nervous system (CNS), melanoma, ovarian, renal, prostate, and breast cancer cell lines.
(§2) Dose-response curves were created by plotting cytotoxic effect against the log10 of the drug concentration for each cell line. Cytotoxic effects of each compound were determined as GI50 and LC50 values, which represent the molar drug concentration for causing 50% growth inhibition, and the concentration that kills 50% of the cells, respectively.

K-562 (Leukemia) = assay: five dose-response growth inhibition/cytotoxicity, K-562; format: cell-based, human; details: for CC50: read-out: LC50 (the source's name)
Method: as §1, §2

SR (Leukemia) = assay: five dose-response growth inhibition/cytotoxicity, SR; format: cell-based, human; details: for CC50: read-out: LC50 (the source's name)
Method: as §1, §2

[2] = test system: HOP-62 (Non-Small Cell Lung Cancer); assay: five dose-response growth inhibition/cytotoxicity, HOP-62; format: cell-based, human; details: for CC50: read-out: LC50 (the source's name)
Method: as §1, §2

HCT-116 (Colon Cancer) = assay: five dose-response growth inhibition/cytotoxicity, HCT-116; format: cell-based, human; details: for CC50: read-out: LC50 (the source's name)
Method: as §1, §2

HCT-15 (Colon Cancer) = assay: five dose-response growth inhibition/cytotoxicity, HCT-15; format: cell-based, human; details: for CC50: read-out: LC50 (the source's name)
Method: as §1, §2

SF-268 (CNS Cancer) = assay: five dose-response growth inhibition/cytotoxicity, SF-268; format: cell-based, human; details: for CC50: read-out: LC50 (the source's name)
Method: as §1, §2

SF-539 (CNS Cancer) = assay: five dose-response growth inhibition/cytotoxicity, SF-539; format: cell-based, human; details: for CC50: read-out: LC50 (the source's name)
Method: as §1, §2

U251 (CNS Cancer) = assay: five dose-response growth inhibition/cytotoxicity, U251; format: cell-based, human; details: for CC50: read-out: LC50 (the source's name)
Method: as §1, §2

LOX IMVI (Melanoma) = assay: five dose-response growth inhibition/cytotoxicity, LOX IMVI; format: cell-based, human; details: for CC50: read-out: LC50 (the source's name)
Method: as §1, §2

M14 (Melanoma) = assay: five dose-response growth inhibition/cytotoxicity, M14; format: cell-based, human; details: for CC50: read-out: LC50 (the source's name)
Method: as §1, §2

MDA-MB-435 (Melanoma) = assay: five dose-response growth inhibition/cytotoxicity, MDA-MB-435; format: cell-based, human; details: for CC50: read-out: LC50 (the source's name)
Method: as §1, §2

SK-MEL-5 (Melanoma) = assay: five dose-response growth inhibition/cytotoxicity, SK-MEL-5; format: cell-based, human; details: for CC50: read-out: LC50 (the source's name)
Method: as §1, §2

UACC-62 (Melanoma) = assay: five dose-response growth inhibition/cytotoxicity, UACC-62; format: cell-based, human; details: for CC50: read-out: LC50 (the source's name)
Method: as §1, §2

OVCAR-3 (Ovarian Cancer) = assay: five dose-response growth inhibition/cytotoxicity, OVCAR-3; format: cell-based, human; details: for CC50: read-out: LC50 (the source's name)
Method: as §1, §2

[3] = test system: NCI/ADR-RES (Ovarian Cancer); assay: five dose-response growth inhibition/cytotoxicity, NCI/ADR-RES; format: cell-based, human; details: for CC50: read-out: LC50 (the source's name)
Method: as §1, §2

[4] = test system: DU-145 (Prostrate Cancer); assay: five dose-response growth inhibition/cytotoxicity, DU-145; format: cell-based, human; details: for CC50: read-out: LC50 (the source's name)
Method: as §1, §2

[5] = test system: leukemia cell lines in the panel; assay: five dose-response growth inhibition, leukemia cell lines in the panel; format: cell-based, human; details: all four leukemia cell lines in the panel; read-out: GI50 values in the range
Method: as §1, §2

HL-60(TB) (Leukemia) = details: for CC50: read-out: LC50
Method: as §1, §2

KM-12 (Colon Cancer) = details: for CC50: read-out: LC50
MOLT-4 (Leukemia) = assay: five dose-response growth inhibition/cytotoxicity, MOLT-4; format: cell-based, human; details: for CC50: read-out: LC50 (the source's name)
Method: as §1, §2

[6] = five dose-response growth inhibition/cytotoxicity, UO-31; format: cell-based, human; details: for CC50: read-out: LC50 (the source's name)
Method: as §1, §2

[7] = test system: HOP-92 non-small cell lung cancer; assay: five dose-response growth inhibition/cytotoxicity, HOP-92; format: cell-based, human; details: for CC50: read-out: LC50 (the source's name)
Method: as §1, §2

[8] = test system: three melanoma cell lines; assay: five dose-response growth inhibition, melanoma cell lines; format: cell-based, human; details: read-out: GI50 values in the range
Method: as §1, §2

[9] = test system: panel of 60 human tumor cell lines; assay: single dose (10 μM) evaluation against panel of 60 human tumor cell lines; format: cell-based; details: any of the human cancer cell lines in the 60 cell panel
Method: as §1

SMILES	GI50 (CCRF-CEM (Leukemia)) [µM]	CC50 (CCRF-CEM (Leukemia)) [µM]	GI50 (K-562 (Leukemia)) [µM]	CC50 (K-562 (Leukemia)) [µM]	GI50 (SR (Leukemia)) [µM]	CC50 (SR (Leukemia)) [µM]	GI50 [2] [µM]	CC50 [2] [µM]	GI50 (HCT-116 (Colon Cancer)) [µM]	CC50 (HCT-116 (Colon Cancer)) [µM]	GI50 (HCT-15 (Colon Cancer)) [µM]	CC50 (HCT-15 (Colon Cancer)) [µM]	GI50 (SF-539 (CNS Cancer)) [µM]	CC50 (SF-539 (CNS Cancer)) [µM]	GI50 (U251 (CNS Cancer)) [µM]	CC50 (U251 (CNS Cancer)) [µM]	GI50 (LOX IMVI (Melanoma)) [µM]	CC50 (LOX IMVI (Melanoma)) [µM]	GI50 (M14 (Melanoma)) [µM]	CC50 (M14 (Melanoma)) [µM]	also measured
O=C1CC(=O)NC(=S)N1 [2-Thiobarbituric acid]																					pKa [1]: 2.1
COc1ccc(C(=O)n2cc(C=C3C(=O)NC(=S)NC3=O)c3cc(OC)ccc32)cc1 [Compound 3k]	2.23	> 50	2.55	> 50	1.45	39.4	3.12	> 50	1.95	≥ 50	1.8	≥ 50	2.56	> 50	1.93	> 50	1.86	≥ 50	2.03	> 50	GI50 (SF-268 (CNS Cancer)): 2.65 µM; CC50 (SF-268 (CNS Cancer)): > 50 µM; GI50 (MDA-MB-435 (Melanoma); MDA-MB-435): 0.85 µM; CC50 (MDA-MB-435 (Melanoma); MDA-MB-435): 3.86 µM; GI50 (MDA-MB-435 (Melanoma); melanoma MDA-MB-435): 0.85 µM; GI50 (SK-MEL-5 (Melanoma)): 2.31 µM; CC50 (SK-MEL-5 (Melanoma)): > 50 µM; GI50 (UACC-62 (Melanoma)): 2.33 µM; CC50 (UACC-62 (Melanoma)): > 50 µM; GI50 (OVCAR-3 (Ovarian Cancer)): 1.26 µM; CC50 (OVCAR-3 (Ovarian Cancer)): ≥ 50 µM; GI50 [3]: 2.91 µM; CC50 [3]: > 50 µM; GI50 [4]: 2.41 µM; CC50 [4]: > 50 µM; GI50 [5]: 1.45 to 3.91 µM; GI50 (HL-60(TB) (Leukemia)): 3.91 µM; CC50 (HL-60(TB) (Leukemia)): > 50 µM; GI50 (KM-12 (Colon Cancer)): 1.99 µM; CC50 (KM-12 (Colon Cancer)): ≥ 50 µM
COc1ccc2c(c1)c(C=C1C(=O)NC(=S)NC1=O)cn2C(=O)c1ccccc1Br [Compound 3s]	4	> 100	3.8	> 100	2.55	> 100	3.59	64.3	3.76	> 100	3.83	89.9	3	57.8	3.09	42.1	2.92	47.9	3.52	> 100	GI50 (SF-268 (CNS Cancer)): 3.86 µM; CC50 (SF-268 (CNS Cancer)): 52.2 µM; GI50 (MDA-MB-435 (Melanoma); MDA-MB-435): 1.77 µM; CC50 (MDA-MB-435 (Melanoma); MDA-MB-435): 8.43 µM; GI50 (SK-MEL-5 (Melanoma)): 3.47 µM; CC50 (SK-MEL-5 (Melanoma)): > 50 µM; GI50 (UACC-62 (Melanoma)): 3.38 µM; CC50 (UACC-62 (Melanoma)): 39.6 µM; GI50 (OVCAR-3 (Ovarian Cancer)): 2.77 µM; CC50 (OVCAR-3 (Ovarian Cancer)): 33.1 µM; GI50 [3]: 3.23 µM; CC50 [3]: > 100 µM; GI50 [4]: 3.01 µM; CC50 [4]: 53.6 µM; GI50 [5]: 2.55 to 4 µM; GI50 (HL-60(TB) (Leukemia)): 3.24 µM; CC50 (HL-60(TB) (Leukemia)): > 100 µM; GI50 (KM-12 (Colon Cancer)): 3.87 µM; CC50 (KM-12 (Colon Cancer)): 51.9 µM
O=C1NC(=S)NC(=O)C1=Cc1cn(C(=O)c2cccc3ccccc23)c2ccccc12 [Compound 3t]	3.35	> 100	3.71	> 100	2.74	92.3	1.3	44.8	2.9	> 100	3.6	> 100	3.68	58.6	3.58	50.7	3.59	55.6	3.22	> 100	GI50 (MOLT-4 (Leukemia)): 3.49 µM; CC50 (MOLT-4 (Leukemia)): 79 µM; GI50 (MDA-MB-435 (Melanoma); MDA-MB-435): 1.91 µM; CC50 (MDA-MB-435 (Melanoma); MDA-MB-435): 9.23 µM; GI50 (OVCAR-3 (Ovarian Cancer)): 2.46 µM; CC50 (OVCAR-3 (Ovarian Cancer)): 46.2 µM; GI50 [3]: 2.59 µM; CC50 [3]: > 100 µM; GI50 [6]: 3.93 µM; CC50 [6]: > 100 µM; GI50 [7]: 1.3 µM; CC50 [7]: 44.8 µM; GI50 [5]: 2.74 to 3.71 µM; GI50 (HL-60(TB) (Leukemia)): 3.36 µM; CC50 (HL-60(TB) (Leukemia)): > 100 µM
COc1ccc2c(c1)c(C=C1C(=O)NC(=S)NC1=O)cn2C(=O)c1cccc2ccccc12 [Compound 3w]	3.31	> 100	3.52	> 100	3.32	> 100	1.09	> 100	3.35	> 100	3.1	> 100	2.3	> 100	3.23	> 100	3.8	> 100	1.91	> 100	GI50 (MOLT-4 (Leukemia)): 3.95 µM; CC50 (MOLT-4 (Leukemia)): > 100 µM; GI50 (MDA-MB-435 (Melanoma); MDA-MB-435): 2.01 µM; CC50 (MDA-MB-435 (Melanoma); MDA-MB-435): 12 µM; GI50 (OVCAR-3 (Ovarian Cancer)): 2.38 µM; CC50 (OVCAR-3 (Ovarian Cancer)): 20.9 µM; GI50 [3]: 3.14 µM; CC50 [3]: > 100 µM; GI50 [6]: 3.72 µM; CC50 [6]: > 100 µM; GI50 [7]: 1.09 µM; CC50 [7]: ≥ 100 µM; GI50 [5]: 3.31 to 3.95 µM; GI50 [8]: 1.91 to 3.8 µM; GI50 (HL-60(TB) (Leukemia)): 3.47 µM; CC50 (HL-60(TB) (Leukemia)): > 100 µM
O=C1NC(=S)NC(=O)C1=Cc1cn(C(=O)c2ccc3ccccc3c2)c2ccccc12 [Compound 3x]																					cytotoxic potency against the 60 cell panel [9]: not identified as potent cytotoxic agents
COc1ccc2c(c1)c(C=C1C(=O)NC(=S)NC1=O)cn2C(=O)c1ccc2ccccc2c1 [Compound 3z]																					cytotoxic potency against the 60 cell panel [9]: not identified as potent cytotoxic agents

Reference: US9597316B2, “Indole compounds for use in treating inflammation and cancer” (BIOVENTURES LLC, priority 2012, dated 2017)
